Data as given in patent EP1910527B1, “MALTOSE-1-PHOSPHATE-PRODUCING ENZYME” (Kao Corporation, priority 2005, dated 2007).

Experiments:
[1] = system: M-1-P-producing enzyme; assay: Maltose transfer reaction without phosphate, HPLC analysis of products; type: biochemical, Corynebacterium glutamicum JCM1321; details: 2.0% substrate, 0.16 U/mL enzyme, one hour at 37°C
Method: As substrates, 2% dextrin MAX 1000 (Matsutani Chemical) and 1M phosphate buffer (pH 7) were employed. To the substrates, a suitably diluted enzyme was added, and the mixture was incubated for one hour at 37°C, followed by quantification of the produced […] through HPLC. Specifically, quantification of […] was performed through use of a DX500 chromatography system (product of DIONEX Corporation) (column: CarboPac PA1 (4x250 mm), detector: ED40 pulsed amperometric detector, eluent: (solution A) 100mM sodium hydroxide; (solution B) 100mM sodium hydroxide containing 1M sodium acetate). Linear gradient analysis was employed (initial concentration: solution.A 90% : solution B 10%, 0-17 min.: solution A 18.5% : solution B 81.5%). As standard substances, 100mM and 50mM […] products (product of SIGMA) were employed. […] One enzyme unit (1U) is defined as the amount of enzyme that produces 1 μM of […] per minute. 0.16 U/mL […]-producing enzyme was allowed to react with each of the substrates having different chain lengths (glucose, maltose, maltotriose, maltotetraose, maltopentaose, maltohexaose (Seikagaku Corporation)) (2.0%) for one hour at 37°C, and the reaction mixture was subjected to HPLC for analysis in a manner similar to that described in Example 1 (the results are represented as peak area). The retention times of maltooligosaccharides (DP=1 to 11) were estimated through analysis of dextrin (Matsutani Chemical).

[2] = system: M-1-P-producing enzyme; assay: Substrate specificity: production of M-1-P from phosphate and saccharide substrates, HPLC quantification; type: biochemical, Corynebacterium glutamicum JCM1321; details: 2.5% substrate, 250mM phosphate buffer (pH 7), 0.16 U/mL enzyme, 15 hours at 37°C
Method: As substrates, 2% dextrin MAX 1000 (Matsutani Chemical) and 1M phosphate buffer (pH 7) were employed. To the substrates, a suitably diluted enzyme was added, and the mixture was incubated for one hour at 37°C, followed by quantification of the produced […] through HPLC. Specifically, quantification of […] was performed through use of a DX500 chromatography system (product of DIONEX Corporation) (column: CarboPac PA1 (4x250 mm), detector: ED40 pulsed amperometric detector, eluent: (solution A) 100mM sodium hydroxide; (solution B) 100mM sodium hydroxide containing 1M sodium acetate). Linear gradient analysis was employed (initial concentration: solution.A 90% : solution B 10%, 0-17 min.: solution A 18.5% : solution B 81.5%). As standard substances, 100mM and 50mM […] products (product of SIGMA) were employed. […] One enzyme unit (1U) is defined as the amount of enzyme that produces 1 μM of […] per minute. To 2.5% Dextrin MAX 1000 (Matsutani Chemical) and 250mM phosphate buffer (pH 7), 0.16 U/mL M-1-P-producing enzyme was added, and the mixture was allowed to react for 15 hours at 37°C. In a manner similar to that described in Example 1, […] was quantified. […] To 250mM Phosphate buffer (pH 7) and each of substrates having different chain lengths (glucose, maltose, maltotriose, maltotetraose, maltopentaose, maltohexaose (Seikagaku Corporation)) (2.5%), 0.16 U/mL M-1-P-producing enzyme was added, and the mixture was allowed to react for 15 hours at 37°C. In a manner similar to that described in Example 1, […] was quantified.

For OC[C@H]1O[C@H](O[C@H]2[C@H](O)[C@@H](O)C(O)O[C@@H]2CO)[C@H](O)[C@@H](O)[C@@H]1O (mixture of isomers) [Maltose], the “Product (Peak area x 10^6): DP=3” value [1] was 0.27 x 10^6, the “Product (Peak area x 10^6): DP=4” value [1] was 0.00 x 10^6 and the “Product (Peak area x 10^6): DP=5” value [1] was 0.00 x 10^6. For the same compound, the “Product (Peak area x 10^6): DP=6” value [1] was 0.00 x 10^6, the “Product (Peak area x 10^6): DP=7” value [1] was 0.00 x 10^6 and the “Product (Peak area x 10^6): DP=8” value [1] was 0.00 x 10^6. For the same compound, the “Product (Peak area x 10^6): DP=9” value [1] was 0.00 x 10^6, the “Product (Peak area x 10^6): DP=10” value [1] was 0.00 x 10^6 and the “Product (Peak area x 10^6): DP=11” value [1] was 0.00 x 10^6. For the same compound, the “Product (Peak area x 10^6): Glucose” value [1] was 0.19 x 10^6 and the “Product (Peak area x 10^6): Maltose” value [1] was 46.79 x 10^6.
In the case of OC[C@H]1OC(O)[C@H](O)[C@@H](O)[C@@H]1O (some centres unmarked) [Glucose], the “Product (Peak area x 10^6): DP=3” value [1] is reported as 0.00 x 10^6, the “Product (Peak area x 10^6): DP=4” value [1] is reported as 0.00 x 10^6 and the “Product (Peak area x 10^6): DP=5” value [1] is reported as 0.00 x 10^6. For the same compound, the “Product (Peak area x 10^6): DP=6” value [1] was 0.00 x 10^6, the “Product (Peak area x 10^6): DP=7” value [1] was 0.00 x 10^6 and the “Product (Peak area x 10^6): DP=8” value [1] was 0.00 x 10^6. The “Product (Peak area x 10^6): DP=9” value [1] was 0.00 x 10^6, the “Product (Peak area x 10^6): DP=10” value [1] was 0.00 x 10^6 and the “Product (Peak area x 10^6): DP=11” value [1] was 0.00 x 10^6. For the same compound, the “Product (Peak area x 10^6): Glucose” value [1] was 65.97 x 10^6 and the “Product (Peak area x 10^6): Maltose” value [1] was 0.00 x 10^6.
In the case of OC[C@H]1O[C@H](O[C@H]2[C@H](O)[C@@H](O)[C@@H](O[C@H]3[C@H](O)[C@@H](O)[C@@H](O[C@H]4[C@H](O)[C@@H](O)[C@@H](O[C@H]5[C@H](O)[C@@H](O)[C@@H](O[C@H]6[C@H](O)[C@@H](O)[C@@H](O[C@H]7[C@H](O)[C@@H](O)C(O)O[C@@H]7CO)O[C@@H]6CO)O[C@@H]5CO)O[C@@H]4CO)O[C@@H]3CO)O[C@@H]2CO)[C@H](O)[C@@H](O)[C@@H]1O (some centres unmarked) [Maltoheptaose], the “Product (Peak area x 10^6): DP=3” value [1] is reported as 0.12 x 10^6, the “Product (Peak area x 10^6): DP=4” value [1] is reported as 0.19 x 10^6 and the “Product (Peak area x 10^6): DP=5” value [1] is reported as 9.59 x 10^6. The “Product (Peak area x 10^6): DP=6” value [1] was 0.00 x 10^6, the “Product (Peak area x 10^6): DP=7” value [1] was 6.36 x 10^6 and the “Product (Peak area x 10^6): DP=8” value [1] was 0.00 x 10^6. The “Product (Peak area x 10^6): DP=9” value [1] was 3.42 x 10^6, the “Product (Peak area x 10^6): DP=10” value [1] was 0.00 x 10^6 and the “Product (Peak area x 10^6): DP=11” value [1] was 3.47 x 10^6. For the same compound, the “Product (Peak area x 10^6): Glucose” value [1] was 0.11 x 10^6, the “Product (Peak area x 10^6): Maltose” value [1] was 0.28 x 10^6 and the “Amount of maltose-1-phosphate produced” value [2] was 96.1 µM.
In the case of OC[C@H]1O[C@H](O[C@H]2[C@H](O)[C@@H](O)[C@@H](O[C@H]3[C@H](O)[C@@H](O)[C@@H](O[C@H]4[C@H](O)[C@@H](O)[C@@H](O[C@H]5[C@H](O)[C@@H](O)[C@@H](O[C@H]6[C@H](O)[C@@H](O)C(O)O[C@@H]6CO)O[C@@H]5CO)O[C@@H]4CO)O[C@@H]3CO)O[C@@H]2CO)[C@H](O)[C@@H](O)[C@@H]1O (some centres unmarked) [Maltohexaose], the “Product (Peak area x 10^6): DP=3” value [1] is reported as 0.37 x 10^6, the “Product (Peak area x 10^6): DP=4” value [1] is reported as 10.20 x 10^6 and the “Product (Peak area x 10^6): DP=5” value [1] is reported as 0.00 x 10^6. The “Product (Peak area x 10^6): DP=6” value [1] was 8.87 x 10^6, the “Product (Peak area x 10^6): DP=7” value [1] was 0.00 x 10^6 and the “Product (Peak area x 10^6): DP=8” value [1] was 5.04 x 10^6. The “Product (Peak area x 10^6): DP=9” value [1] was 0.00 x 10^6, the “Product (Peak area x 10^6): DP=10” value [1] was 3.96 x 10^6 and the “Product (Peak area x 10^6): DP=11” value [1] was 0.00 x 10^6. For the same compound, the “Product (Peak area x 10^6): Glucose” value [1] was 0.05 x 10^6, the “Product (Peak area x 10^6): Maltose” value [1] was 0.61 x 10^6 and the “Amount of maltose-1-phosphate produced” value [2] was 49.6 µM.
With OC[C@H]1O[C@H](O[C@H]2[C@H](O)[C@@H](O)[C@@H](O[C@H]3[C@H](O)[C@@H](O)[C@@H](O[C@H]4[C@H](O)[C@@H](O)[C@@H](O[C@H]5[C@H](O)[C@@H](O)C(O)O[C@@H]5CO)O[C@@H]4CO)O[C@@H]3CO)O[C@@H]2CO)[C@H](O)[C@@H](O)[C@@H]1O (some centres unmarked) [Maltopentaose] the “Product (Peak area x 10^6): DP=3” value [1] was 0.51 x 10^6, the “Product (Peak area x 10^6): DP=4” value [1] was 0.58 x 10^6 and the “Product (Peak area x 10^6): DP=5” value [1] was 26.40 x 10^6. For the same compound, the “Product (Peak area x 10^6): DP=6” value [1] was 0.00 x 10^6, the “Product (Peak area x 10^6): DP=7” value [1] was 0.52 x 10^6 and the “Product (Peak area x 10^6): DP=8” value [1] was 0.00 x 10^6. The “Product (Peak area x 10^6): DP=9” value [1] was 0.00 x 10^6, the “Product (Peak area x 10^6): DP=10” value [1] was 0.00 x 10^6 and the “Product (Peak area x 10^6): DP=11” value [1] was 0.00 x 10^6. For the same compound, the “Product (Peak area x 10^6): Glucose” value [1] was 0.09 x 10^6, the “Product (Peak area x 10^6): Maltose” value [1] was 0.27 x 10^6 and the “Amount of maltose-1-phosphate produced” value [2] was 1.04 µM.
With OC[C@H]1O[C@H](O[C@H]2[C@H](O)[C@@H](O)[C@@H](O[C@H]3[C@H](O)[C@@H](O)[C@@H](O[C@H]4[C@H](O)[C@@H](O)C(O)O[C@@H]4CO)O[C@@H]3CO)O[C@@H]2CO)[C@H](O)[C@@H](O)[C@@H]1O (some centres unmarked) [Maltotetraose] the “Product (Peak area x 10^6): DP=3” value [1] was 1.25 x 10^6, the “Product (Peak area x 10^6): DP=4” value [1] was 30.80 x 10^6 and the “Product (Peak area x 10^6): DP=5” value [1] was 0.00 x 10^6. The “Product (Peak area x 10^6): DP=6” value [1] was 0.36 x 10^6, the “Product (Peak area x 10^6): DP=7” value [1] was 0.00 x 10^6 and the “Product (Peak area x 10^6): DP=8” value [1] was 0.00 x 10^6. The “Product (Peak area x 10^6): DP=9” value [1] was 0.00 x 10^6, the “Product (Peak area x 10^6): DP=10” value [1] was 0.00 x 10^6 and the “Product (Peak area x 10^6): DP=11” value [1] was 0.00 x 10^6. For the same compound, the “Product (Peak area x 10^6): Glucose” value [1] was 0.19 x 10^6 and the “Product (Peak area x 10^6): Maltose” value [1] was 0.15 x 10^6.
For OC[C@H]1O[C@H](O[C@H]2[C@H](O)[C@@H](O)[C@@H](O[C@H]3[C@H](O)[C@@H](O)C(O)O[C@@H]3CO)O[C@@H]2CO)[C@H](O)[C@@H](O)[C@@H]1O (some centres unmarked) [Maltotriose], the “Product (Peak area x 10^6): DP=3” value [1] was 33.27 x 10^6, the “Product (Peak area x 10^6): DP=4” value [1] was 0.12 x 10^6 and the “Product (Peak area x 10^6): DP=5” value [1] was 0.00 x 10^6. For the same compound, the “Product (Peak area x 10^6): DP=6” value [1] was 0.00 x 10^6, the “Product (Peak area x 10^6): DP=7” value [1] was 0.00 x 10^6 and the “Product (Peak area x 10^6): DP=8” value [1] was 0.00 x 10^6. For the same compound, the “Product (Peak area x 10^6): DP=9” value [1] was 0.00 x 10^6, the “Product (Peak area x 10^6): DP=10” value [1] was 0.00 x 10^6 and the “Product (Peak area x 10^6): DP=11” value [1] was 0.00 x 10^6. The “Product (Peak area x 10^6): Glucose” value [1] was 0.52 x 10^6 and the “Product (Peak area x 10^6): Maltose” value [1] was 1.84 x 10^6.
